Laboratory results reported in patent US5573999A, “β-substituted cinnamic acid derivative” (BASF Aktiengesellschaft, priority 1991, dated 1996).

Test system: mitochondrial respiration
Experiment: Inhibition of mitochondrial respiration (rate of reduction of cytochrome c in isolated mitochondria), yeast
Type: biochemical, Saccharomyces cerevisiae
Settings: DMSO control
Description: In order to determine the effect of the compounds according to the invention on mitochondrial respiration it is first necessary to isolate the mitochondria from the organisms being investigated. For this, in the case of the yeast Saccharomyces cerevisiae, the cells in a 30 to 40% strength suspension of the yeast in an aqueous solution of 0.6M mannitol+0.01M tris[hydroxymethyl]-aminomethane+0.002M disodium ethylenediaminetetraacetate (pH 6.8) are disrupted in a glass bead mill, and the extract is fractionated by differential centrifugation at 1000× g and 12000× g. The mitochondria are in the pellet from the 12000× g centrifugation.
Used as control is a mixture with the equivalent amount of pure DMSO. The inhibition at the concentration of agent in each case is then calculated as follows [formula] where ΔE is the change in extinction, at is the change in time, [formula] is the reaction rate for the control and [formula] is the reaction rate for the sample x.
The inhibition was determined in each case at a test substance concentration of 1.8/10^-5mol/l .

| SMILES | % inhibition of respiration at 1.8 × 10^-5 mol/l test substance, Saccharomyces cerevisiae [%] |
| --- | --- |
| COC(=O)/C=C(/OC)c1ccccc1/C=C/c1cc(CC(C)C)no1 [Compound 1a.324] | 99 |
| CCCCOc1ccc(OCc2ccccc2/C(=C\C(=O)OC)OC)cc1 [Compound 1a.37] | 98 |
| COC(=O)/C=C(/OC)c1ccccc1/C=C/c1ccc(C)cc1 [Compound 1a.250] | 99 |
| COC(=O)/C=C(/OC)c1ccccc1/C=C/C1CCCOC1 (stereo not shown) [Compound 1a.329] | 9 |
| COC(=O)/C=C(/OC)c1ccccc1/C=C/c1cnn(-c2cccc(Cl)c2)c1 [Compound 1a.316] | 98 |
| COC(=O)/C=C(\C)c1ccccc1CBr [Compound 1.167, methyl (E)-β-methyl-2-bromomethylcinnamate] | 99 |
| COC(=O)/C=C(\OC)c1ccccc1Oc1cccc(C)c1 [Compound 1.91, methyl (Z)-β-methoxy-2-(3-methylphenoxy)cinnamate] | 22 |
| C=CCOC(=O)/C=C(/OC)c1ccccc1COc1ccc(C(C)=NOC)cc1C [Compound 1a.83] | 78 |
| COC(=O)/C=C(/OC)c1ccccc1CON=C(c1ccccc1)c1ccc(Cl)cc1 [Compound 1a.358] | 99 |
| CCCCOC(=O)/C=C(/OC)c1ccccc1COc1ccc(C(C)=NOC)cc1C [Compound 1a.77] | 63 |
| CON=C(C)c1ccc(OCc2ccccc2/C(=C\C(=O)N(C)C)OC)c(C)c1 [Compound 1a.98] | 100 |
| COC(=O)/C=C(/OC)c1ccccc1/C=C/c1noc(-c2ccc(Cl)cc2)c1C [Compound 1a.322] | 99 |
| COC(=O)/C=C(/OC)c1ccccc1CSc1nc(-c2ccccc2)cs1 [Compound 1a.162] | 76 |
| COC(=O)/C=C(/OC)c1ccccc1/C=C/c1ccc(OCc2ccccc2)cc1 [Compound 1a.264, methyl 2-[2-(4-benzyloxyphenyl)-(E)-ethenyl]-(E)-β-methoxycinnamate] | 98 |
| COC(=O)/C=C(/OC)c1ccccc1C [Compound 1.1, methyl (E)-β-methoxy-2-methylcinnamate] | 23 |
| COC(=O)/C=C(/OC)c1ccccc1/C=C/C1CCOC(c2ccccc2)C1 (stereo not shown) [Compound 1a.331] | 79 |
| CO/N=C(\C)c1ccc(OCc2ccccc2/C(=C\C(N)=O)OC)c(C)c1 [Compound 1a.88, (E)-β-methoxy-2-[2-methyl-4-(1-methoximinoethyl)phenoxymethyl]cinnamide] | 99 |
| COC(=O)/C=C(/OC)c1ccccc1/C=C\c1cnn(-c2ccc(OC)cc2)c1 [Compound 1a.319] | 11 |
| COC(=O)/C=C(/OC)c1ccccc1/C=C/C1CCOC(C2CCCOC2)C1 (stereo not shown) [Compound 1a.333] | 20 |
| C#CCOC(=O)/C=C(/OC)c1ccccc1COc1ccc(C(C)=NOC)cc1C [Compound 1a.84] | 98 |
| CCNC(=O)/C=C(/OC)c1ccccc1COc1ccc(C(C)=NOC)cc1C [Compound 1a.91] | 99 |
| CNC(=O)/C=C(/OC)c1ccccc1COc1ccc(C(C)=NOC)cc1C [Compound 1a.89] | 99 |
